The text below walks through data of patent US10717746B2, “Chemical compounds” (ASTRAZENECA AB, priority 2015, dated 2020).

The term IC50 denotes the concentration needed to halve the response being measured.

The target of assay [1] is T1, CDK9/CycT1 (Homo sapiens (Human), UniProt P50750). As to the kind of experiment: CDK9 kinase assay, ATP concentration at Km (mobility shift, Caliper LC3000). In kind it is biochemical. As to conditions: 6 μM ATP, 3 nM CDK9/CycT1; read-out: CDK9 ATP conc. at Km (IC50). The method, boiled down:
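[…], compound sat 15 min with enzyme mix: 3 nM CDK9/CycT1, 1.5 µM FITC-GSRTPMY substrate, 6 µM ATP, pH 7.2 HEPES buffer.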

In assay [2] the test system is phosphorylation of RNA Polymerase II (RNAPII) at the Ser2 site in MCF7 cells. As to the kind of experiment: MCF7 pSer2 RNAPII MOA assay (immunofluorescence). Type of assay: cell-based. The conditions noted are these: Homo sapiens, MCF7, 6 h, 6-hr treatment, read-out: p-Ser 2 RNAPII (IC50). In short, it runs like this: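 Phospho-Ser2 RNAPII was measured by immunofluorescence (Alexa Fluor 488, DAPI counterstain) with plate cytometer read-out. Before staining, cells were fixed with paraformaldehyde and permeabilized with Triton. Exposure was 6 h at 37° C. to CDK9 inhibitors over 7 points (3 μM to 0.004 μM) in MCF7 cells seeded at 2500/well the previous day.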

The target in assay [3] is T1, CDK9/CycT1. As to the kind of experiment: CDK9 kinase assay, high ATP concentration (5 mM ATP). Type of assay: biochemical. As to conditions: 1.5 nM CDK9, read-out: CDK9 High ATP conc. (IC50). The method, boiled down:
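Caliper mobility-shift read-out of phosphorylated vs unphosphorylated FITC-peptide (1.5 μM), giving percent turnover. Final 1.5 nM CDK9/CycT1 and 5 mM ATP in 50 mM HEPES pH 7.2, 1 mM DTT, 10 mM MgCl2; compound preincubated 15 min, reaction 90 min at 25° C, stopped with EDTA.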

The subject of the next assay is MV411 cells. As to the kind of experiment: MV411 caspase activity assay (Caspase-Glo 3/7). Type of assay: cell-based. As to conditions: Homo sapiens, MV4-11, 6 h, 6-hr treatment, caspase 3/7 induction. In short, it runs like this:
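MV411 AML cells (3000/well) were plated overnight, then treated with compound for 6 h at 37 °C. Caspase-3/7 activity was read as luminescence after 30 min with Caspase-Glo 3/7 reagent at room temperature.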

Molecules are shown by their SMILES.

T1 sequence (P50750 whole entry): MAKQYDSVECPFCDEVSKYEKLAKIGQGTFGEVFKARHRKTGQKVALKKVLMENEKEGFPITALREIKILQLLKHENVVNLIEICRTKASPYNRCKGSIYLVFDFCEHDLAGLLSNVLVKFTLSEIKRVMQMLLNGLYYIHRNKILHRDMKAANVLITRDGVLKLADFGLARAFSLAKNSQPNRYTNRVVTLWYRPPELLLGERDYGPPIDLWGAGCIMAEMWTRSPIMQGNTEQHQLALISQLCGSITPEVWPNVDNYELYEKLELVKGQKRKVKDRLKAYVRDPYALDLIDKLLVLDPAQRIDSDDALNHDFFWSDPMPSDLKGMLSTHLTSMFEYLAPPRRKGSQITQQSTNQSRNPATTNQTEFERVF
T1 sequence (O60563 whole entry partner): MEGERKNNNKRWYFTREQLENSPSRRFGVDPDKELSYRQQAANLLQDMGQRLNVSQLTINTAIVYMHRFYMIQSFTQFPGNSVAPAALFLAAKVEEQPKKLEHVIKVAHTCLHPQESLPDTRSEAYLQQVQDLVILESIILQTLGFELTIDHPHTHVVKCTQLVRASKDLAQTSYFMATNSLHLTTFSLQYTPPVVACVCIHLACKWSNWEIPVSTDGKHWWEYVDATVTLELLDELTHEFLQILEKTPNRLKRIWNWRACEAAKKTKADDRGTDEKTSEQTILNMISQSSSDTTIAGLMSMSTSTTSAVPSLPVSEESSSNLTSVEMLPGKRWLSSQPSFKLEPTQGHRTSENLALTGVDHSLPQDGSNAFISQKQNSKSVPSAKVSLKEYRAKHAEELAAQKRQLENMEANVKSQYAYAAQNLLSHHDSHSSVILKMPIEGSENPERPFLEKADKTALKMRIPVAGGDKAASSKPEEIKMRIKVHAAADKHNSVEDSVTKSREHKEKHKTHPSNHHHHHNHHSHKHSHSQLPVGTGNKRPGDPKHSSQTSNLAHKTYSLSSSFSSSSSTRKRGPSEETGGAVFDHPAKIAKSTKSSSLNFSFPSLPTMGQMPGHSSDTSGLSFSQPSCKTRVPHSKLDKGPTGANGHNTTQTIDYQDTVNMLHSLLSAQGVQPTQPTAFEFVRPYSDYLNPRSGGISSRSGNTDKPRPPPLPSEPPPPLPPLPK

As for `CC(C)(C)OC(=O)N[C@@H]1CCC[C@H](C(=O)Nc2cc(-c3cnn4c3CCCC4)c(Cl)cn2)C1` [Example 31a, tert-butyl ((1R,3S)-3-((5-chloro-4-(4,5,6,7-tetrahydropyrazolo[1,5-a]pyridin-3-yl)pyridin-2-yl)carbamoyl)cyclohexyl)carbamate], the IC50 at CDK9/CycT1 [1] is below 3 nM; in assay [2] it was 170 nM; at CDK9/CycT1 [3], 16 nM; in the assay on MV411 cells it was 177 nM.
In the case of `O=C(Nc1cc(-c2cnn3c2CCCC3)c(Cl)cn1)[C@H]1CCC[C@@H](NC(=O)C2(O)CC2)C1` [Example 32, (1S,3R)—N-(5-chloro-4-(4,5,6,7-tetrahydropyrazolo[1,5-a]pyridin-3-yl)pyridin-2-yl)-3-(1-hydroxycyclopropanecarboxamido)cyclohexanecarboxamide], the IC50 is below 3 nM at CDK9/CycT1 [1], 55 nM in assay [2], 17 nM on CDK9/CycT1 [3] and 136 nM in the assay with MV411 cells.
Take `O=C(Nc1cc(-c2cnn3c2CCCC3)c(Cl)cn1)[C@H]1CCC[C@@H](NC(=O)[C@@H]2CCOC2)C1` [Example 33, (R)—N-((1R,3S)-3-((5-chloro-4-(4,5,6,7-tetrahydropyrazolo[1,5-a]pyridin-3-yl)pyridin-2-yl)carbamoyl)cyclohexyl)tetrahydrofuran-3-carboxamide]: the IC50 is below 3 nM on CDK9/CycT1 [1], 57 nM in assay [2], 19 nM on CDK9/CycT1 [3] and 171 nM in the assay with MV411 cells.
Take `CC1(C(=O)N[C@@H]2CCC[C@H](C(=O)Nc3cc(-c4cnn5c4CCCC5)c(Cl)cn3)C2)COC1` [Example 34, N-((1R,3S)-3-((5-chloro-4-(4,5,6,7-tetrahydropyrazolo[1,5-a]pyridin-3-yl)pyridin-2-yl)carbamoyl)cyclohexyl)-3-methyloxetane-3-carboxamide]: the IC50 was below 3 nM at CDK9/CycT1 [1], 107 nM in assay [2], 29 nM on CDK9/CycT1 [3] and 188 nM with MV411 cells.
For the molecule `O=C(Nc1cc(-c2cnn3c2CCCC3)c(Cl)cn1)[C@H]1CCC[C@@H](NC(=O)[C@@H]2CCCO2)C1` [Example 35, (S)—N-((1R,3S)-3-((5-chloro-4-(4,5,6,7-tetrahydropyrazolo[1,5-a]pyridin-3-yl)pyridin-2-yl)carbamoyl)cyclohexyl)tetrahydrofuran-2-carboxamide], the IC50 was below 3 nM at CDK9/CycT1 [1], 40 nM in assay [2], 23 nM on CDK9/CycT1 [3] and 125 nM in the assay with MV411 cells.
As for `O=C(Nc1cc(-c2cnn3c2CCCC3)c(Cl)cn1)[C@H]1CCC[C@@H](NC(=O)[C@H]2CCCO2)C1` [Example 36, (R)—N-((1R,3S)-3-((5-chloro-4-(4,5,6,7-tetrahydropyrazolo[1,5-a]pyridin-3-yl)pyridin-2-yl)carbamoyl)cyclohexyl)tetrahydrofuran-2-carboxamide], the IC50 is below 3 nM at CDK9/CycT1 [1], 38 nM in assay [2], 39 nM on CDK9/CycT1 [3] and 104 nM in the assay with MV411 cells.
Turning to `C[C@H](O)C(=O)N[C@@H]1CCC[C@H](C(=O)Nc2cc(-c3cnn4c3CCCC4)c(Cl)cn2)C1` [Example 37, (1S,3R)—N-(5-chloro-4-(4,5,6,7-tetrahydropyrazolo[1,5-a]pyridin-3-yl)pyridin-2-yl)-3-((S)-2-hydroxypropanamido)cyclohexanecarboxamide], the IC50 at CDK9/CycT1 [1] is below 3 nM; in assay [2], 149 nM; at CDK9/CycT1 [3] it was 38 nM; with MV411 cells it was 177 nM.
In the same order, the values of `O=C(Nc1cc(-c2cnn3c2CCCC3)c(Cl)cn1)[C@H]1CCC[C@@H](NC(=O)[C@H]2CCOC2)C1` [Example 38, (S)—N-((1R,3S)-3-((5-chloro-4-(4,5,6,7-tetrahydropyrazolo[1,5-a]pyridin-3-yl)pyridin-2-yl)carbamoyl)cyclohexyl)tetrahydrofuran-3-carboxamide] are below 3 nM, 123 nM, 28 nM and 139 nM.
In the case of `CC(=O)N[C@@H]1CCC[C@H](C(=O)Nc2cc(-c3cnn4c3CC(C)(C)C4)c(C#N)cn2)C1` [Example 39, (1S,3R)-3-acetamido-N-(5-cyano-4-(5,5-dimethyl-5,6-dihydro-4H-pyrrolo[1,2-b]pyrazol-3-yl)pyridin-2-yl)cyclohexanecarboxamide], the IC50 is below 3 nM on CDK9/CycT1 [1], 147 nM in assay [2], 62 nM at CDK9/CycT1 [3] and 145 nM in the assay on MV411 cells.
In the same order, the values of `CC(=O)N[C@@H]1CCC[C@H](C(=O)Nc2cc(-c3cnn4c3CC(C)C4)c(Cl)cn2)C1` (stereo partly drawn) [Example 40, (1S,3R)-3-acetamido-N-(5-chloro-4-(5-methyl-5,6-dihydro-4H-pyrrolo[1,2-b]pyrazol-3-yl)pyridin-2-yl)cyclohexanecarboxamide] are below 3 nM, 57 nM, 28 nM and 67 nM.
`CC(=O)N[C@@H]1CCC[C@H](C(=O)Nc2cc(-c3cnn4c3CC(C)(C)CC4)ccn2)C1` [Example 44, (1S,3R)-3-acetamido-N-(4-(5,5-dimethyl-4,5,6,7-tetrahydropyrazolo[1,5-a]pyridin-3-yl)pyridin-2-yl)cyclohexanecarboxamide]: the IC50 at CDK9/CycT1 [1] is below 3 nM; in assay [2], 48 nM; on CDK9/CycT1 [3], 8 nM; with MV411 cells it was 39 nM.
Regarding `CC1(C)Cc2c(-c3cc(NC(=O)[C@H]4CCC[C@@H](NC(=O)[C@@H]5CCCO5)C4)ncc3Cl)cnn2C1` [Example 45, (S)—N-((1R,3S)-3-((5-chloro-4-(5,5-dimethyl-5,6-dihydro-4H-pyrrolo[1,2-b]pyrazol-3-yl)pyridin-2-yl)carbamoyl)cyclohexyl)tetrahydrofuran-2-carboxamide], the IC50 on CDK9/CycT1 [1] was below 3 nM; in assay [2] it was 12 nM; on CDK9/CycT1 [3], below 4 nM; in the assay with MV411 cells, 8 nM.
Take `CC1(C)Cc2c(-c3cc(NC(=O)[C@H]4CCC[C@@H](NC(=O)[C@H]5CCCO5)C4)ncc3Cl)cnn2C1` [Example 46, (R)—N-((1R,3S)-3-((5-chloro-4-(5,5-dimethyl-5,6-dihydro-4H-pyrrolo[1,2-b]pyrazol-3-yl)pyridin-2-yl)carbamoyl)cyclohexyl)tetrahydrofuran-2-carboxamide]: the IC50 on CDK9/CycT1 [1] is below 3 nM; in assay [2] it was 9 nM; on CDK9/CycT1 [3] it was below 4 nM; with MV411 cells it was 12 nM.
As for `CC(=O)N[C@@H]1CC[C@H](C(=O)Nc2cc(-c3cnn4c3CC(C)(C)C4)c(Cl)cn2)C1` [Example 48, (1S,3R)-3-acetamido-N-(5-chloro-4-(5,5-dimethyl-5,6-dihydro-4H-pyrrolo[1,2-b]pyrazol-3-yl)pyridin-2-yl)cyclopentanecarboxamide], the IC50 at CDK9/CycT1 [1] was below 3 nM; in assay [2] it was 40 nM; on CDK9/CycT1 [3] it was 3 nM; with MV411 cells, 15 nM.
On to `CC(=O)N[C@@H]1CCC[C@H](C(=O)Nc2cc(-c3nnn4c3CCCC4)c(Cl)cn2)C1` [Example 49, (1S,3R)-3-acetamido-N-(5-chloro-4-(4,5,6,7-tetrahydro-[1,2,3]triazolo[1,5-a]pyridin-3-yl)pyridin-2-yl)cyclohexanecarboxamide], for which the IC50 was 39 nM at CDK9/CycT1 [1], above 2870 nM in assay [2], 4400 nM on CDK9/CycT1 [3] and 7980 nM with MV411 cells.
Turning to `CC(=O)N[C@@H]1CCC[C@H](C(=O)Nc2cc(-c3cnc4n3CC(C)(C)C4)c(F)cn2)C1` [Example 50, (1S,3R)-3-acetamido-N-(4-(6,6-dimethyl-6,7-dihydro-5H-pyrrolo[1,2-a]imidazol-3-yl)-5-fluoropyridin-2-yl)cyclohexanecarboxamide], the IC50 is below 3 nM on CDK9/CycT1 [1], 19 nM in assay [2], 5 nM on CDK9/CycT1 [3] and 26 nM with MV411 cells.
Turning to `CC(=O)N[C@@H]1CCC[C@H](C(=O)Nc2cc(-c3cnn4c3CC(C)(C)CC4)c(F)cn2)C1` [Example 51, (1S,3R)-3-acetamido-N-(4-(5,5-dimethyl-4,5,6,7-tetrahydropyrazolo[1,5-a]pyridin-3-yl)-5-fluoropyridin-2-yl)cyclohexanecarboxamide], the IC50 on CDK9/CycT1 [1] was below 3 nM; in assay [2], 10 nM; on CDK9/CycT1 [3] it was below 3 nM; in the assay on MV411 cells, 15 nM.
For the molecule `CC1(C)CCn2ncc(-c3cc(NC(=O)[C@H]4CCC[C@@H](N)C4)ncc3F)c2C1` [Example 51a, (1S,3R)-3-amino-N-(4-(5,5-dimethyl-4,5,6,7-tetrahydropyrazolo[1,5-a]pyridin-3-yl)-5-fluoropyridin-2-yl)cyclohexanecarboxamide], the IC50 is below 3 nM at CDK9/CycT1 [1], 292 nM in assay [2], 148 nM at CDK9/CycT1 [3] and 228 nM in the assay on MV411 cells.
